System: not listed separately
Test: DPPH free radical scavenging
Settings: mean ± SD (n = 3)
Procedure: The effect of target compounds and vitamin C to scavenge the DPPH free radical was evaluated with the method described by Villano et al.[43] with slight modifications.
Two millilitres of different concentrations of the sample solution was added to 2.0 ml of DPPH solution (0.04 mg/mL), shaken and allowed to react at room temperature for 30 min. The absorbance value was measured at 517 nm with an ultraviolet-visible spectrophotometer. The blank reference cuvette contained absolute ethanol. All measurements were performed in triplicate. IC50 values were calculated. The percentage of DPPH radical scavenging rate of the target compound is calculated as follows: DPPH free radical scavenging effect (%)=[A0−(A1−A2)]/A0×100% where A0 is the absorbance of 2.0 ml DPPH solution +2.0 ml absolute ethanol; A1 is the absorbance of 2.0 ml DPPH solution +2.0 ml 3-arylcoumarins solution or standard; A2 is the absorbance of 2.0 ml 3-arylcoumarins solution or standard +2.0 ml absolute ethanol.

SMILES | IC50
Cc1ccc(-c2cc3ccc(O)c(O)c3oc2=O)cc1 [Compound 23, 7,8-Dihydroxy-3-(4-methylphenyl)-coumarin] | 3.21 ± 0.04 µM
O=c1oc2cc(O)cc(O)c2cc1-c1ccc(F)cc1 [Compound 31, 5,7-Dihydroxy-3-(4-fluorophenyl)-coumarin] | 595 ± 11.3 µM
O=c1oc2cc(O)ccc2cc1-c1ccc(F)cc1 [Compound 18, 7-Hydroxy-3-(4-fluorophenyl)-coumarin] | > 1000 µM
O=c1oc2ccccc2cc1-c1ccc(Br)cc1 [Compound 40, 3-(4-brominephenyl)-coumarin] | > 1000 µM
Cc1ccc(-c2cc3ccc(O)cc3oc2=O)cc1 [Compound 9, 7-Hydroxy-3-(4-methylphenyl)-coumarin] | 60.2 ± 1.27 µM
O=c1oc2cc(O)ccc2cc1-c1ccc(Br)cc1 [Compound 44, 7-Hydroxy-3-(4-brominephenyl)-coumarin] | > 1000 µM
COc1ccc(-c2cc3ccc(O)cc3oc2=O)cc1OC [Compound 37, 7-Hydroxy-3-(3,4-dimethoxyphenyl)-coumarin] | 173 ± 42.6 µM
O=c1oc2c(O)cccc2cc1-c1ccc(O)cc1 [Compound 14, 8-Hydroxy-3-(4-hydroxyphenyl)-coumarin] | 167 ± 2.01 µM
O=c1oc2c(O)c(O)ccc2cc1-c1ccc(O)c(O)c1 [Compound 36, 7,8-Dihydroxy-3-(3,4-dihydroxyphenyl)-coumarin] | 1.33 ± 0.03 µM

System: not listed separately
Test: hydroxyl radical scavenging
Settings: mean ± SD (n = 3), read-out: OH IC50 Value
Procedure: The ability of the target compounds and vitamin C to scavenge the hydroxyl radical was evaluated with method described by Ismaili et al.[29] with slight modifications. In test tube, 1.0 ml H2O2 solution (0.03%), 1.0 ml FeSO4 solution (2 mmol.L^−1), 1.0 ml salicylic acid solution (10 mmol.L^−1) and 1.0 ml of 3-arylcoumarins and standard water solution with different concentration (0.4–2.0 mg/mL) were mixed. Finally, 1.0 ml H2O2 solution (0.03%) was added to this mixture to start the reaction. Solutions were kept at 37 °C. After 30 min, the absorbance was measured at 510 nm against the reagent blank, where the distilled water was substituted for the H2O2 solution. The percentage of OH scavenging by target compounds and vitamin C was calculated the following equation: OH scavenging effect (%)=[A0−(A1−A2)]/A0×100% where A0 is the absorbance of 1.0 ml distilled water +1.0 ml H2O2 + 1.0 ml FeSO4 + 1.0 ml salicylic acid +1.0 ml H2O2; A1 is the absorbance of 1.0 ml 3-arylcoumarins or standard +1.0 ml H2O2 + 1.0 ml FeSO4 + 1.0 ml salicylic acid +1.0 ml H2O2; A2 is the absorbance of 1.0 ml 3-arylcoumarins or standard +1.0 ml H2O2 + 1.0 ml FeSO4 + 1.0 ml absolute absolute ethanol +1.0 ml H2O2.

SMILES | IC50
Cc1ccc(-c2cc3ccc(O)c(O)c3oc2=O)cc1 [Compound 23, 7,8-Dihydroxy-3-(4-methylphenyl)-coumarin] | 801 ± 41.8 µM
O=c1oc2cc(O)cc(O)c2cc1-c1ccc(F)cc1 [Compound 31, 5,7-Dihydroxy-3-(4-fluorophenyl)-coumarin] | > 1000 µM
O=c1oc2cc(O)ccc2cc1-c1ccc(F)cc1 [Compound 18, 7-Hydroxy-3-(4-fluorophenyl)-coumarin] | > 1000 µM
O=c1oc2ccccc2cc1-c1ccc(Br)cc1 [Compound 40, 3-(4-brominephenyl)-coumarin] | > 1000 µM
Cc1ccc(-c2cc3ccc(O)cc3oc2=O)cc1 [Compound 9, 7-Hydroxy-3-(4-methylphenyl)-coumarin] | > 1000 µM
O=c1oc2cc(O)ccc2cc1-c1ccc(Br)cc1 [Compound 44, 7-Hydroxy-3-(4-brominephenyl)-coumarin] | > 1000 µM
COc1ccc(-c2cc3ccc(O)cc3oc2=O)cc1OC [Compound 37, 7-Hydroxy-3-(3,4-dimethoxyphenyl)-coumarin] | > 1000 µM
O=c1oc2c(O)cccc2cc1-c1ccc(O)cc1 [Compound 14, 8-Hydroxy-3-(4-hydroxyphenyl)-coumarin] | > 1000 µM
O=c1oc2c(O)c(O)ccc2cc1-c1ccc(O)c(O)c1 [Compound 36, 7,8-Dihydroxy-3-(3,4-dihydroxyphenyl)-coumarin] | 244 ± 11.8 µM

Target: T1, α-Glucosidase (Saccharomyces cerevisiae, UniProt P53341)
T1 construct: purchased Sigma Aldrich G0660-750UN
Test: biochemical
Type: biochemical
Settings: not given
Procedure: α-Glucosidase (G0660-750UN, Sigma Aldrich) and 4-Nitrophenyl α-D-glucopyranoside (PNPG, Macklin) were dissolved in phosphate buffer (pH 6.8, 100 mM), and the test compounds were dissolved in DMSO solution. The experiment was divided into blank group, control group, sample blank group, and sample group. The reagents were loaded in 96-well plates at the dose of the table (Table 8). The solution was bathed in 37 °C water for 10 min, and then enzyme solution was added. After reaction at 37 °C for 20 min, 70 μL Na2CO3 solution ([…]) was added to stop the reaction. All experiments were run in triplicate. […] Since PNPG can produce glucose and p-Nitrophenol (PNP) under the action of α-glucosidase, PNP has the greatest absorption at 405 nm. The absorbance was determined by the microplate reader, and the inhibition rate of α-glucosidase and the IC50 value of each sample were calculated according to the formula. Inhibition rate %={[(AC−AB)−(AS−ASB)]/(AC−AB)}×100% where AC is the absorbance of control group; AB is the absorbance of blank group; AS is the absorbance of sample group; ASB is the absorbance of sample blank group.

T1 sequence (P53341 whole entry): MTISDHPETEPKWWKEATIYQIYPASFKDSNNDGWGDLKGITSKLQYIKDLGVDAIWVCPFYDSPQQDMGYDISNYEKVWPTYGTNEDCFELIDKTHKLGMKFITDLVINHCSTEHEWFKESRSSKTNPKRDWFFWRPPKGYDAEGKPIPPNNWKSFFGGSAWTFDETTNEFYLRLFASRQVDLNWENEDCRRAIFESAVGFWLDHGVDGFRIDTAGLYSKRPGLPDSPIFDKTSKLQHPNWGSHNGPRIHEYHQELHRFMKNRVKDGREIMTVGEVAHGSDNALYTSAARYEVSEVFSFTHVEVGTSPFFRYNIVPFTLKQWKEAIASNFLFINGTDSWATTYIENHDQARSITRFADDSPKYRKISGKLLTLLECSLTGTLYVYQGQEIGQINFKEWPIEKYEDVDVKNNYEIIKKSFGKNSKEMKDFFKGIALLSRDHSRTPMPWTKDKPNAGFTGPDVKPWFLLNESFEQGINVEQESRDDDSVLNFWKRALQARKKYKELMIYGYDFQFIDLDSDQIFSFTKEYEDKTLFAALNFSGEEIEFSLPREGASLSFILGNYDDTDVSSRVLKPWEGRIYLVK

SMILES | IC50
Cc1ccc(-c2cc3ccc(O)c(O)c3oc2=O)cc1 [Compound 23, 7,8-Dihydroxy-3-(4-methylphenyl)-coumarin] | 25.5 ± 0.52 µM
O=c1oc2cc(O)cc(O)c2cc1-c1ccc(F)cc1 [Compound 31, 5,7-Dihydroxy-3-(4-fluorophenyl)-coumarin] | 19.1 ± 0.26 µM
O=c1oc2c(O)cccc2cc1-c1ccc(O)cc1 [Compound 14, 8-Hydroxy-3-(4-hydroxyphenyl)-coumarin] | 213 ± 40.3 µM

Same assay, conditions: mean ± SD (n = 3); read-out: α-Glucosidase inhibitory activity IC50 Value

IC50 | SMILES
86.9 ± 1.17 µM | O=c1oc2cc(O)ccc2cc1-c1ccc(F)cc1 [Compound 18, 7-Hydroxy-3-(4-fluorophenyl)-coumarin]
118 ± 41.5 µM | Cc1ccc(-c2cc3ccc(O)cc3oc2=O)cc1 [Compound 9, 7-Hydroxy-3-(4-methylphenyl)-coumarin]
> 1000 µM | COc1ccc(-c2cc3ccc(O)cc3oc2=O)cc1OC [Compound 37, 7-Hydroxy-3-(3,4-dimethoxyphenyl)-coumarin]
247 ± 36.2 µM | O=c1oc2c(O)c(O)ccc2cc1-c1ccc(O)c(O)c1 [Compound 36, 7,8-Dihydroxy-3-(3,4-dihydroxyphenyl)-coumarin]

SMILES | IC50
O=c1oc2ccccc2cc1-c1ccc(Br)cc1 [Compound 40, 3-(4-brominephenyl)-coumarin] | > 1000 µM
O=c1oc2cc(O)ccc2cc1-c1ccc(Br)cc1 [Compound 44, 7-Hydroxy-3-(4-brominephenyl)-coumarin] | > 1000 µM

System: AGEs formation
Test: In vitro inhibitory activity of AGEs formation (bovine serum albumin/glucose)
Type: biochemical
Settings: mean ± SD (n = 3)
Procedure: To prepare the AGEs reaction solution, 10 mg/mL of bovine serum albumin in 50 mM PBS (pH 7.4) was added to 0.2 M glucose, and 0.02% sodium azide was added to prevent bacterial growth. The reaction mixture (3.0 ml) was then mixed with various concentrations (0.5–1000 μg/mL) of the target compounds (1.0 ml) dissolved in DMSO. After incubating at 37 °C for 14 d, the fluorescence intensity of AGE was determined by a fluorospectrophotometer (PE, USA) with excitation and emission wavelengths at 350 nm and 420 nm, respectively. All experiments were run in triplicate. Aminoguanidine hydrochloride was used as a reference compound. The inhibition rate of AGEs formation and the IC50 value of each sample were calculated according to the formula. Inhibition rate %={[(AC−AB)−(AS−ASB)]/(AC−AB)}×100% where AC is the absorbance of control group(1.0 ml glucose +1.0 ml bovine serum albumin +1.0 ml sodium azide +1.0 ml DMSO); AB is the absorbance of blank group(1.0 ml PBS +1.0 ml bovine serum albumin +1.0 ml sodium azide +1.0 ml DMSO); AS is the absorbance of sample group (1.0 ml glucose +1.0 ml bovine serum albumin +1.0 ml sodium azide +1.0 ml target compound solution or Aminoguanidine hydrochloride solution); ASB is the absorbance of sample blank group (1.0 ml PBS +1.0 ml bovine serum albumin +1.0 ml sodium azide +1.0 ml target compound solution or Aminoguanidine hydrochloride solution).

SMILES | IC50
Cc1ccc(-c2cc3ccc(O)c(O)c3oc2=O)cc1 [Compound 23, 7,8-Dihydroxy-3-(4-methylphenyl)-coumarin] | 75.9 ± 10.7 µM
O=c1oc2cc(O)ccc2cc1-c1ccc(F)cc1 [Compound 18, 7-Hydroxy-3-(4-fluorophenyl)-coumarin] | 20.6 ± 0.39 µM
O=c1oc2ccccc2cc1-c1ccc(Br)cc1 [Compound 40, 3-(4-brominephenyl)-coumarin] | 13 ± 0.4 µM
Cc1ccc(-c2cc3ccc(O)cc3oc2=O)cc1 [Compound 9, 7-Hydroxy-3-(4-methylphenyl)-coumarin] | > 1000 µM
O=c1oc2cc(O)ccc2cc1-c1ccc(Br)cc1 [Compound 44, 7-Hydroxy-3-(4-brominephenyl)-coumarin] | 7.51 ± 0.38 µM
O=c1oc2c(O)cccc2cc1-c1ccc(O)cc1 [Compound 14, 8-Hydroxy-3-(4-hydroxyphenyl)-coumarin] | 45.2 ± 5.28 µM
O=c1oc2c(O)c(O)ccc2cc1-c1ccc(O)c(O)c1 [Compound 36, 7,8-Dihydroxy-3-(3,4-dihydroxyphenyl)-coumarin] | 14.2 ± 1.33 µM

System: not given
Test: not given
Settings: not given

SMILES | melting point
Cc1ccc(-c2cc3ccc(O)c(O)c3oc2=O)cc1 [Compound 23, 7,8-Dihydroxy-3-(4-methylphenyl)-coumarin] | 226.8 to 227.5 °C
O=c1oc2cc(O)cc(O)c2cc1-c1ccc(F)cc1 [Compound 31, 5,7-Dihydroxy-3-(4-fluorophenyl)-coumarin] | 267 to 267.6 °C
